According to ChEMBL document CHEMBL5723586, “Data for DCP probe BI-1915” (2024):
Values belong to the compound of their own block, whether it stands above or below them. Active and inactive are the calls of the source. No cut-off for these calls is given here.

Assays:
[1] = molecular target: Mu-type opioid receptor (Homo sapiens) (UniProt P35372); assay: mu (MOP) Eurofins-Cerep binding assay; set-up: ligand concentration 0.5 nM; details: Compound concentration 10.0 uM
[2] = molecular target: 5-hydroxytryptamine receptor 1B (Homo sapiens) (UniProt P28222); assay: 5-HT1B Eurofins-Cerep binding assay; set-up: ligand concentration 1 nM; details: Compound concentration 10.0 uM
[3] = molecular target: 5-hydroxytryptamine receptor 2B (Homo sapiens) (UniProt P41595); assay: 5-HT2B Eurofins-Cerep binding assay; details: Compound concentration 10.0 uM
[4] = molecular target: Muscarinic acetylcholine receptor M2 (Homo sapiens) (UniProt P08172); assay: M2 Eurofins-Cerep binding assay; set-up: ligand concentration 2 nM; details: Compound concentration 10.0 uM
[5] = molecular target: 5-hydroxytryptamine receptor 3A (Homo sapiens) (UniProt P46098); assay: 5-HT3 Eurofins-Cerep binding assay; set-up: ligand concentration 0.5 nM; details: Compound concentration 10.0 uM
[6] = molecular target: cGMP-inhibited 3',5'-cyclic phosphodiesterase 3A (Homo sapiens) (UniProt Q14432); assay: Inhibitor of PDE3A in the Eurofins Cerep SafetyScreen44 (BI) by HTRF-homogeneous time resolved fluoresce (Cerep_4072); details: Compound concentration 10.0 uM
[7] = molecular target: Prostaglandin G/H synthase 2 (Homo sapiens) (UniProt P35354); assay: Inhibitor of COX-2 in the Eurofins Cerep SafetyScreen44 (BI) by Fluorimetry (Cerep_4186); details: Compound concentration 10.0 uM
[8] = molecular target: Alpha-1A adrenergic receptor (Homo sapiens) (UniProt P35348); assay: Agonist activity in the Eurofins Cerep SafetyScreen44 (BI) against ALPHA1AH_ANTAG by Scintillation counting (Cerep_2338); details: Compound concentration 10.0 uM
[9] = molecular target: Glucocorticoid receptor (Homo sapiens) (UniProt P04150); assay: GR Eurofins-Cerep binding assay; details: Compound concentration 10.0 uM
[10] = molecular target: Delta-type opioid receptor (Homo sapiens) (UniProt P41143); assay: delta (DOP) Eurofins-Cerep binding assay; set-up: ligand concentration 0.5 nM; details: Compound concentration 10.0 uM
[11] = molecular target: L-type calcium channel (dihydropyridine site), Cav1.2 alpha-1C (Rattus norvegicus, UniProt P22002); assay: Inhibitor of CA+/DHPSI/R in the Eurofins Cerep SafetyScreen44 (BI) by Radioactive Assay (Cerep_161); type: protein assay; set-up: scale not given: the % may be the effect or the level left; details: rat brain, probe [3H](+)PN200-110, compound concentration 10 uM, read-out: % Ctrl
[12] = molecular target: Histamine H2 receptor (Homo sapiens) (UniProt P25021); assay: H2 Eurofins-Cerep binding assay; set-up: ligand concentration 0.075 nM; details: Compound concentration 10.0 uM
[13] = molecular target: Kappa-type opioid receptor (Homo sapiens) (UniProt P41145); assay: kappa (KOP) Eurofins-Cerep binding assay; details: Compound concentration 10.0 uM
[14] = molecular target: Beta-2 adrenergic receptor (Homo sapiens) (UniProt P07550); assay: beta 2 Eurofins-Cerep binding assay; details: Compound concentration 10.0 uM
[15] = molecular target: MAO-A (amine oxidase [flavin-containing] A) (Homo sapiens, UniProt P21397); assay: Agonist activity in the Eurofins Cerep SafetyScreen44 (BI) against MAO-A_ANTAG by Scintillation counting (Cerep_443); set-up: scale not given: the % may be the effect or the level left; details: rat; compound concentration 10 uM; target entry is the homologue from another species; read-out: % Ctrl
[16] = molecular target: D(2) dopamine receptor (Homo sapiens) (UniProt P14416); assay: Agonist activity in the Eurofins Cerep SafetyScreen44 (BI) against D2SH_AGON by Scintillation counting (Cerep_1322); details: Compound concentration 10.0 uM
[17] = molecular target: Endothelin-1 receptor (Homo sapiens) (UniProt P25101); assay: ETA Eurofins-Cerep binding assay; set-up: ligand concentration 0.03 nM; details: Compound concentration 10.0 uM
[18] = molecular target: Sodium-dependent noradrenaline transporter (Homo sapiens) (UniProt P23975); assay: norepinephrine transporter Eurofins-Cerep binding assay; set-up: ligand concentration 1 nM; details: Compound concentration 10.0 uM
[19] = molecular target: 5-hydroxytryptamine receptor 1A (Homo sapiens) (UniProt P08908); assay: 5-HT1A Eurofins-Cerep binding assay; set-up: ligand concentration 0.5 nM; details: Compound concentration 10.0 uM
[20] = molecular target: 3',5'-cyclic-AMP phosphodiesterase 4D (Homo sapiens) (UniProt Q08499); assay: Inhibitor of PDE4D2 in the Eurofins Cerep SafetyScreen44 (BI) by Scintillation counting (Cerep_4077); details: Compound concentration 10.0 uM
[21] = molecular target: Cannabinoid receptor 1 (Homo sapiens) (UniProt P21554); assay: CB1 Eurofins-Cerep binding assay; details: Compound concentration 10.0 uM
[22] = molecular target: Glutamate NMDA receptor (Rattus norvegicus) (UniProt P35439+Q00959+Q00960+Q00961+Q62645+Q8VHN2+Q9R1M7); assay: Inhibitor of NMDA/R in the Eurofins Cerep SafetyScreen44 (BI) by Radioactive Assay (Cerep_66); type: protein-complex assay; details: Compound concentration 10.0 uM
Homo sapiens = species on record: Homo sapiens; assay: Agonist activity in the Eurofins Cerep SafetyScreen44 (BI) against N_NEURO_A4B2 by Radioligand Binding (Cerep_3029); type: protein-complex assay; details: Compound concentration 10.0 uM
[23] = molecular target: Histamine H1 receptor (Homo sapiens) (UniProt P35367); assay: H1 Eurofins-Cerep binding assay; set-up: ligand concentration 1 nM; details: Compound concentration 10.0 uM
[24] = molecular target: Alpha-2A adrenergic receptor (Homo sapiens) (UniProt P08913); assay: Inhibitor of ALPHA2A/HU in the Eurofins Cerep SafetyScreen44 (BI) by Radioactive Assay (Cerep_13); details: Compound concentration 10.0 uM
[25] = molecular target: Beta-1 adrenergic receptor (Homo sapiens) (UniProt P08588); assay: beta 1 Eurofins-Cerep binding assay; set-up: ligand concentration 0.3 nM; details: Compound concentration 10.0 uM
[26] = molecular target: 5-hydroxytryptamine receptor 2A (Homo sapiens) (UniProt P28223); assay: Agonist activity in the Eurofins Cerep SafetyScreen44 (BI) against 5HT2AH_AGON by Scintillation counting (Cerep_471); details: Compound concentration 10.0 uM
[27] = molecular target: Sodium-dependent dopamine transporter (Homo sapiens) (UniProt Q01959); assay: dopamine transporter Eurofins-Cerep binding assay; details: Compound concentration 10.0 uM
[28] = molecular target: Cannabinoid receptor 2 (Homo sapiens) (UniProt P34972); assay: Activity against CB2/PERIPH/H in the Eurofins Cerep SafetyScreen44 (BI) by Radioactive Assay (Cerep_37); details: Compound concentration 10.0 uM
[29] = molecular target: D(1A) dopamine receptor (Homo sapiens) (UniProt P21728); assay: D1 Eurofins-Cerep binding assay; set-up: ligand concentration 0.3 nM; details: Compound concentration 10.0 uM
[30] = molecular target: Androgen receptor (Homo sapiens) (UniProt P10275); details: Compound concentration 10.0 uM
Description: Activity against ANDROGEN/H in the Eurofins Cerep SafetyScreen44 (BI) by Radioactive Assay (Cerep_933)

[31] = molecular target: Prostaglandin G/H synthase 1 (Homo sapiens) (UniProt P23219); assay: Inhibitor of COX-1 in the Eurofins Cerep SafetyScreen44 (BI) by Fluorimetry (Cerep_4173); details: Compound concentration 10.0 uM
[32] = molecular target: Sodium-dependent serotonin transporter (Homo sapiens) (UniProt P31645); assay: 5-HT transporter Eurofins-Cerep binding assay; set-up: ligand concentration 2 nM; details: Compound concentration 10.0 uM
[33] = molecular target: Muscarinic acetylcholine receptor M1 (Homo sapiens) (UniProt P11229); assay: M1 Eurofins-Cerep binding assay; set-up: ligand concentration 2 nM; details: Compound concentration 10.0 uM
Rattus norvegicus [34] = species on record: Rattus norvegicus; assay: KV channel Eurofins-Cerep binding assay; set-up: ligand concentration 0.01 nM; details: Compound concentration 10.0 uM
hERG (KCNH2) = hERG (KCNH2) (Homo sapiens, UniProt Q12809); assay: Inhibitor of HERG_DOFETILIDE in the Eurofins Cerep SafetyScreen44 (BI) by Scintillation counting (Cerep_4094); set-up: scale not given: the % may be the effect or the level left; details: probe [3H] Dofetilide, compound concentration 10 uM, read-out: % Ctrl
[35] = molecular target: Tyrosine-protein kinase Lck (Homo sapiens) (UniProt P06239); assay: Inhibitor of LCK_CE in the Eurofins Cerep SafetyScreen44 (BI) by lanthanide chelation excitation (Cerep_2906); details: Compound concentration 10.0 uM
[36] = molecular target: Angiotensin-converting enzyme (Homo sapiens) (UniProt P12821); assay: Activity against ACE(HU_AMTCH400) in the Eurofins Cerep SafetyScreen44 (BI) by Photometry (Cerep_3441); details: Compound concentration 10.0 uM
Rattus norvegicus [37] = species on record: Rattus norvegicus; assay: Activity against BZD/CENTR/R in the Eurofins Cerep SafetyScreen44 (BI) by Radioactive Assay (Cerep_28); type: protein-complex assay; details: Compound concentration 10.0 uM
[38] = molecular target: Muscarinic acetylcholine receptor M3 (Homo sapiens) (UniProt P20309); assay: M3 Eurofins-Cerep binding assay; set-up: ligand concentration 0.2 nM; details: Compound concentration 10.0 uM
[39] = molecular target: Cholecystokinin receptor type A (Homo sapiens) (UniProt P32238); assay: CCK1 (CCKA) Eurofins-Cerep binding assay; set-up: ligand concentration 0.08 nM; details: Compound concentration 10.0 uM
[40] = molecular target: Vasopressin V1a receptor (Homo sapiens) (UniProt P37288); assay: V1a Eurofins-Cerep binding assay; set-up: ligand concentration 0.3 nM; details: Compound concentration 10.0 uM
[41] = molecular target: Adenosine receptor A2a (Homo sapiens) (UniProt P29274); assay: A2A Eurofins-Cerep binding assay; set-up: ligand concentration 6 nM; details: Compound concentration 10.0 uM
Procathepsin L = Procathepsin L (Homo sapiens, UniProt P07711); assay: Luminescent based enzymatic assay (CTSL)
Cathepsin B = Cathepsin B (Homo sapiens, UniProt P07858); assay: Luminescent based enzymatic assay (CTSB)
Cathepsin S = Cathepsin S (Homo sapiens, UniProt P25774); assay: Scintillation proximity assay (CTSS)
Cathepsin K = Cathepsin K (Homo sapiens, UniProt P43235); assay: Luminescent based enzymatic assay (CTSK)

Beta-2 adrenergic receptor (Homo sapiens), sequence (P07550 whole entry, looked up): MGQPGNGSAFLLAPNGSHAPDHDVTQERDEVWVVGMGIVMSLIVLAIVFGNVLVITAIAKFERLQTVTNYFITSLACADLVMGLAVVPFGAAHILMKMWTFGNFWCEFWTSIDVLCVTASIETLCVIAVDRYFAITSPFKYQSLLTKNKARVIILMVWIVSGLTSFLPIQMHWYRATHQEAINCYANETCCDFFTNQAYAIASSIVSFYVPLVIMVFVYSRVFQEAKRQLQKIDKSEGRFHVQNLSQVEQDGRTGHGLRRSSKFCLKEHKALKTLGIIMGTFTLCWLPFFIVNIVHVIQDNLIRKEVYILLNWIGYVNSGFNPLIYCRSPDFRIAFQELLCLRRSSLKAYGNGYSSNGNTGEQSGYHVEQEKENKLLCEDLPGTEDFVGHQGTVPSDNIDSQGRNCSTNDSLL
Cannabinoid receptor 2 (Homo sapiens), sequence (P34972 whole entry): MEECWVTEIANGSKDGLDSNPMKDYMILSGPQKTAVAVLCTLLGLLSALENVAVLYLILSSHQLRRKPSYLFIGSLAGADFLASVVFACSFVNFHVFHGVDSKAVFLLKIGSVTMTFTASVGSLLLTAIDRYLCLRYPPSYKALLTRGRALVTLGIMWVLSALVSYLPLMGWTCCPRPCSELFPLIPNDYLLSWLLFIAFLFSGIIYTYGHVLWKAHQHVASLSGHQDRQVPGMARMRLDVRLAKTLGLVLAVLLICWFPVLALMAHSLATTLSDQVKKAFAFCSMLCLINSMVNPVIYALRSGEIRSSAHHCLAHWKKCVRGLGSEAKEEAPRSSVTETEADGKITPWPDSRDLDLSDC
Vasopressin V1a receptor (Homo sapiens), sequence (P37288 whole entry, looked up): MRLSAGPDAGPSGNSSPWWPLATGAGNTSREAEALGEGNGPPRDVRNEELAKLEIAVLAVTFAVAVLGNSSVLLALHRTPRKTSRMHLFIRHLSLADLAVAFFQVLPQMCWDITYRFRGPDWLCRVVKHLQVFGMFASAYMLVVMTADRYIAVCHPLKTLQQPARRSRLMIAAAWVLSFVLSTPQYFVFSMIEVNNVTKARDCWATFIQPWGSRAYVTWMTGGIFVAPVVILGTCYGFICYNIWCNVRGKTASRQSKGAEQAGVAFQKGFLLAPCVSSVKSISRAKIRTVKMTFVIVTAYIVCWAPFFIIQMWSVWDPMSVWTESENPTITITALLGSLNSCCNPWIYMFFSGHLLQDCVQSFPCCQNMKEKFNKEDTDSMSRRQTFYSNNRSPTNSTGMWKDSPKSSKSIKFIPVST
Histamine H2 receptor (Homo sapiens), sequence (P25021 whole entry): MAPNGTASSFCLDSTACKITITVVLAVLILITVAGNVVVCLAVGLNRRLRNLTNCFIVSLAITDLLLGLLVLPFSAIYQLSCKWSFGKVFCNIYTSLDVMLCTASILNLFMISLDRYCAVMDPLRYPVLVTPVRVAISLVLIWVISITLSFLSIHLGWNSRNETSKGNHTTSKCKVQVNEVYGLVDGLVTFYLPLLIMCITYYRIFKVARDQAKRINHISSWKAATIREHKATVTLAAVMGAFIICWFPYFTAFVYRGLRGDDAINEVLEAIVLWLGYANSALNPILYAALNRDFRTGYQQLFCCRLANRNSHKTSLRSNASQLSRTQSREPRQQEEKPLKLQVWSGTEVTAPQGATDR
L-type calcium channel (dihydropyridine site), Cav1.2 alpha-1C, sequence (P22002 whole entry): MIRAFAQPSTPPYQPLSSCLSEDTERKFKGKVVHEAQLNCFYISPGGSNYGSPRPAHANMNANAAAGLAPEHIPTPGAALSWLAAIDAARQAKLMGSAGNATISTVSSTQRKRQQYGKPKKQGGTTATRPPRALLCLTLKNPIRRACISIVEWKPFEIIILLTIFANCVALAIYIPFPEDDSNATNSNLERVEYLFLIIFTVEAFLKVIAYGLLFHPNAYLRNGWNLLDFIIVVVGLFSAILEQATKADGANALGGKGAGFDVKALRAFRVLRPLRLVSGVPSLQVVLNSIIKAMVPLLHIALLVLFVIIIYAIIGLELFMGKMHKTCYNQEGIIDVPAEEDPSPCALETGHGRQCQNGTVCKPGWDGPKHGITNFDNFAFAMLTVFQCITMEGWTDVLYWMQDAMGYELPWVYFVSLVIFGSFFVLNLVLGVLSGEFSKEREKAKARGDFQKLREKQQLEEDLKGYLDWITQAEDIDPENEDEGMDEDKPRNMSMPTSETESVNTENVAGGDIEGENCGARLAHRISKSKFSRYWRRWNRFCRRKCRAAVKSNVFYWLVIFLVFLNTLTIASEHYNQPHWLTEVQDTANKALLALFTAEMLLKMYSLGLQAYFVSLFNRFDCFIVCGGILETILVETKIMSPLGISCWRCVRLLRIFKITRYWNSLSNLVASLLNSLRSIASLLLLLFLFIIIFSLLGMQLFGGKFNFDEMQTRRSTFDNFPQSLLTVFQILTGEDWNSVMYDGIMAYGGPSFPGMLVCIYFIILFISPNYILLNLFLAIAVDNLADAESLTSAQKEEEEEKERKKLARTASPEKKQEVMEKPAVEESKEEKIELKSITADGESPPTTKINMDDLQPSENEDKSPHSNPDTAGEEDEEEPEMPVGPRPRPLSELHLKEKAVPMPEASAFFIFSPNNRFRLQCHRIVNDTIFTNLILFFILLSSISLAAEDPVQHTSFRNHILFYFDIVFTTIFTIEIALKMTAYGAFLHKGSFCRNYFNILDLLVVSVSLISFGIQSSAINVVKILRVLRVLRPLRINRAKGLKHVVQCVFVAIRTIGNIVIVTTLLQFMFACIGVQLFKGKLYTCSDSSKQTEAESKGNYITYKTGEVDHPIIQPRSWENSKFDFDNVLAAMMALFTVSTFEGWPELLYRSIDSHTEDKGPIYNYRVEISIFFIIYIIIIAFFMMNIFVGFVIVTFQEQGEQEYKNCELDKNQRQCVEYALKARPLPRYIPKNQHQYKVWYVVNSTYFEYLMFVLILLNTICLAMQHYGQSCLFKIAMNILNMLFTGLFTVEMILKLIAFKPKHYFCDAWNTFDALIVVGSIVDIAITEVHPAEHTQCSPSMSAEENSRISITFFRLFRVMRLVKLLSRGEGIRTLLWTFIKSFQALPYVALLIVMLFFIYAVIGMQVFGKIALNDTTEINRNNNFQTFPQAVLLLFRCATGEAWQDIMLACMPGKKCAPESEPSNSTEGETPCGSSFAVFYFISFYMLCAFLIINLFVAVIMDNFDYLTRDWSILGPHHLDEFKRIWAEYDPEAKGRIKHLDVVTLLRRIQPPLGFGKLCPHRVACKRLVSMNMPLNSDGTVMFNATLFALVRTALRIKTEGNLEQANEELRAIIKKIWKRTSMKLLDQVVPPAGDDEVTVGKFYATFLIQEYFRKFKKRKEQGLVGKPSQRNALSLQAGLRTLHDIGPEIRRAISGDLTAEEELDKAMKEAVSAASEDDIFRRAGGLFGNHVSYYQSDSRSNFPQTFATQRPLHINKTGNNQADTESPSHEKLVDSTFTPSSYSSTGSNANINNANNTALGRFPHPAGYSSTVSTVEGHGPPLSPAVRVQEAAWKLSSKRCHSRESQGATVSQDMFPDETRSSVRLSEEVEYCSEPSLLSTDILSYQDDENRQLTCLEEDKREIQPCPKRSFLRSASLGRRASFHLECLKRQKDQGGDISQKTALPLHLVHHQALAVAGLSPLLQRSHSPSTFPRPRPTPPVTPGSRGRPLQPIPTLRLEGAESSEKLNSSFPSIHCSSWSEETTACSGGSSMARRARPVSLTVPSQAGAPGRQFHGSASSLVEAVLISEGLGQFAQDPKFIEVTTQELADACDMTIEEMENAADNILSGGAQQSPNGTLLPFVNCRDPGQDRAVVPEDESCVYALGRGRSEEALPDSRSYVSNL
Glucocorticoid receptor (Homo sapiens), sequence (P04150 whole entry): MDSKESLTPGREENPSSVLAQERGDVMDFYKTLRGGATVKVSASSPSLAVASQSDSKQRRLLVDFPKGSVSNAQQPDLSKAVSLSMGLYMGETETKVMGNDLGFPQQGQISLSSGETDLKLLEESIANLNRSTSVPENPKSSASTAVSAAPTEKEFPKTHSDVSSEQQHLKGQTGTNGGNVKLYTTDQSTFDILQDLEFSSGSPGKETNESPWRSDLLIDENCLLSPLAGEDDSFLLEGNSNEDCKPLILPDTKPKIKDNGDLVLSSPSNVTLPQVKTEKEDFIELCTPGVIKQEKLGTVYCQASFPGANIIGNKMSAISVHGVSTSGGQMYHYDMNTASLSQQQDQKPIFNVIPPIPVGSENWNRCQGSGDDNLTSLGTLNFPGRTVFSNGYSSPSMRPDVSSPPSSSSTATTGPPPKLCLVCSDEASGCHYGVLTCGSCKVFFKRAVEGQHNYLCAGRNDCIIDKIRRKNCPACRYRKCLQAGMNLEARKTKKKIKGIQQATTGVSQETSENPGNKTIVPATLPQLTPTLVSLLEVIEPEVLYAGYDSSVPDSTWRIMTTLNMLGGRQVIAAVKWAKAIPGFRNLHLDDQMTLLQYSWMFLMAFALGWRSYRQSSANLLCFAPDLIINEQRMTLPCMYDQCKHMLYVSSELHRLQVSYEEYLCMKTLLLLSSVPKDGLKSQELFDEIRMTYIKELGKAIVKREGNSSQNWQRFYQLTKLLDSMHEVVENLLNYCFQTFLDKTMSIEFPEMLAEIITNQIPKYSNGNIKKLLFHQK
D(2) dopamine receptor (Homo sapiens), sequence (P14416 whole entry): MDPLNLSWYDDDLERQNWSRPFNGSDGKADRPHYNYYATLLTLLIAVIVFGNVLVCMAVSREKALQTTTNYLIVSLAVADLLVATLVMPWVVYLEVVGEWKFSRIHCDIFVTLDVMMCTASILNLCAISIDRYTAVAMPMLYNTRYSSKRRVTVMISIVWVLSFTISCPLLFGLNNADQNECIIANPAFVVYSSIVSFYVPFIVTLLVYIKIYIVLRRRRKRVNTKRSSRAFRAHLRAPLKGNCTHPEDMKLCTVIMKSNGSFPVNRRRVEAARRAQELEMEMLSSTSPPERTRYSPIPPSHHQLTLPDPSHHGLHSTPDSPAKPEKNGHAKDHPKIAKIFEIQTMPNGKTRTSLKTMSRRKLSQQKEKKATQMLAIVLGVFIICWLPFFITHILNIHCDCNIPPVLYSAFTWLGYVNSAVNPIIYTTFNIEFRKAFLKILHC

residual activity [1]: 96%
residual activity [2]: 61%
residual activity [3]: 117%
residual activity [4]: 125%
residual activity [5]: 97%
residual activity [9]: 105%
residual activity [10]: 106%
residual activity [12]: 92%
residual activity [13]: 96%
residual activity [14]: 92%
residual activity [17]: 112%
residual activity [18]: 120%
residual activity [19]: 97%
residual activity [21]: 112%
residual activity [23]: 106%
residual activity [25]: 97%
residual activity [27]: 105%
residual activity [29]: 105%
residual activity [30]: 110%
residual activity [32]: 106%
residual activity [33]: 108%
residual activity (Rattus norvegicus [34]): 110%
residual activity [38]: 112%
residual activity [39]: 96%
residual activity [40]: 94%
residual activity [41]: 87%
SMILES: CN1CCC(C#N)(NC(=O)[C@@H](NC(=O)N2CCOCC2)C(C)(C)C)CC1
residual activity [6]: 88%
residual activity [7]: 90%
residual activity [8]: 104%
activity at 10 µM [11]: 115% (not active)
activity at 10 µM [15]: 105% (not active)
residual activity [16]: 107%
residual activity [20]: 105%
residual activity [22]: 92%
residual activity (Homo sapiens): 98%
residual activity [24]: 80%
residual activity [26]: 123%
residual activity [28]: 109%
residual activity [31]: 108%
activity at 10 µM (hERG (KCNH2)): 98% (not active)
residual activity [35]: 99%
residual activity [36]: 105%
residual activity (Rattus norvegicus [37]): 111%

residual activity [1]: 81%
residual activity [2]: 92.5%
residual activity [3]: 118%
residual activity [4]: 106%
residual activity [5]: 100%
IC50 (Procathepsin L): > 30 µM (not active)
residual activity [9]: 102%
residual activity [10]: 92.5%
residual activity [12]: 106%
residual activity [13]: 84.5%
IC50 (Cathepsin B): > 10 µM (not active)
residual activity [14]: 103%
Kd (Cathepsin S): 0.031 µM (active)
residual activity [17]: 106%
residual activity [18]: 103%
residual activity [19]: 104%
residual activity [21]: 116%
IC50 (Cathepsin K): > 10 µM (not active)
residual activity [23]: 101%
residual activity [25]: 101%
residual activity [27]: 98.5%
residual activity [29]: 94%
residual activity [30]: 107%
residual activity [32]: 106%
residual activity [33]: 105%
residual activity (Rattus norvegicus [34]): 109%
residual activity [38]: 106%
residual activity [39]: 88%
residual activity [40]: 92.5%
residual activity [41]: 102%
SMILES: CCC(C)(C)CC[C@H](NC(=O)N1CCOCC1)C(=O)NC1(C#N)CCN(C)CC1
residual activity [6]: 103%
residual activity [7]: 104%
residual activity [8]: 110%
activity at 10 µM [11]: 106% (not active)
activity at 10 µM [15]: 108% (not active)
residual activity [16]: 106%
residual activity [20]: 100%
residual activity [22]: 106%
residual activity (Homo sapiens): 114%
residual activity [24]: 97%
residual activity [26]: 104%
residual activity [28]: 106%
residual activity [31]: 112%
activity at 10 µM (hERG (KCNH2)): 100% (not active)
residual activity [35]: 96.5%
residual activity [36]: 98.5%
residual activity (Rattus norvegicus [37]): 114%
